Experimental data published in PubChem BioAssay (NCI).
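Values below derive from 48-hour exposures of cells grown in 96-well plates, with endpoints linearly interpolated between the two concentrations bracketing the appropriate inhibition level. At the GI50, growth is halved. TGI marks complete inhibition of growth.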

Key:
Experiment in all cases: growth of human tumour cells (NCI), 48 h
M14 melanoma = system: M14 melanoma
SF-539 CNS = system: SF-539 CNS
NCI-H460 lung = system: NCI-H460 lung
SW-620 colon = system: SW-620 colon
HCT-116 colon = system: HCT-116 colon
CCRF-CEM leukemia = system: CCRF-CEM leukemia
SK-MEL-5 melanoma = system: SK-MEL-5 melanoma
SN12C renal = system: SN12C renal
BT-549 breast = system: BT-549 breast
IGROV1 ovarian = system: IGROV1 ovarian

| SMILES | TGI (M14 melanoma) | TGI (SF-539 CNS) | TGI (NCI-H460 lung) | TGI (SW-620 colon) | TGI (HCT-116 colon) | TGI (CCRF-CEM leukemia) | TGI (SK-MEL-5 melanoma) | TGI (SN12C renal) | TGI (BT-549 breast) | TGI (IGROV1 ovarian) | GI50 (M14 melanoma) | GI50 (SF-539 CNS) | GI50 (NCI-H460 lung) | GI50 (SW-620 colon) | GI50 (HCT-116 colon) | GI50 (CCRF-CEM leukemia) | GI50 (SK-MEL-5 melanoma) | GI50 (SN12C renal) | GI50 (BT-549 breast) | GI50 (IGROV1 ovarian) |
| --- | --- | --- | --- | --- | --- | --- | --- | --- | --- | --- | --- | --- | --- | --- | --- | --- | --- | --- | --- | --- |
| COc1cc([C@@H]2c3cc4c(cc3[C@@H](c3c(O)cc(O)c5c3O[C@H](c3ccc(O)c(O)c3)[C@@H](O)C5)[C@H]3COC(=O)[C@H]23)OCO4)cc(OC)c1OC | > 100 µM | > 100 µM | 3.72 µM | > 100 µM | > 100 µM | > 100 µM | 92.7 µM | > 100 µM | > 100 µM | > 100 µM | – | – | – | – | – | – | – | – | – | – |
| OCCO/N=C1\C(c2c(O)[nH]c3ccccc23)=Nc2ccccc21 | > 100 µM | > 100 µM | > 100 µM | > 100 µM | > 100 µM | > 100 µM | > 100 µM | > 100 µM | > 100 µM | > 100 µM | – | – | – | – | – | – | – | – | – | – |
| CSCSSC | > 100 µM | > 100 µM | > 100 µM | > 100 µM | > 100 µM | > 100 µM | > 100 µM | > 100 µM | > 100 µM | > 100 µM | – | – | – | – | – | – | – | – | – | – |
| CC(=C(c1ccccc1)c1ccccc1)N1C(=O)CC(=O)N1C | > 100 µM | > 100 µM | > 100 µM | > 100 µM | > 100 µM | 78.2 µM | > 100 µM | > 100 µM | > 100 µM | 39 µM | – | – | – | – | – | – | – | – | – | – |
| COc1ccc(C2=Nc3cc(C)c(C)cc3NC(c3ccccc3)C2)cc1 (stereo not given) | > 100 µM | > 100 µM | > 100 µM | > 100 µM | > 100 µM | > 100 µM | > 100 µM | > 100 µM | > 100 µM | > 100 µM | – | – | – | – | – | – | – | – | – | – |
| Cc1ccc(OCC2OC(n3cnc4c(Cl)nc(N)nc43)CC2Oc2ccc(C)cc2)cc1 (stereo not given) | > 100 µM | > 100 µM | > 100 µM | > 100 µM | > 100 µM | > 100 µM | > 100 µM | > 100 µM | > 100 µM | 61.5 µM | – | – | – | – | – | – | – | – | – | – |
| OCC(O)C(O)C(O)C(O)c1nc2ccc(Cl)cc2[nH]1 (stereo not given) | > 100 µM | > 100 µM | > 100 µM | > 100 µM | > 100 µM | > 100 µM | > 100 µM | > 100 µM | > 100 µM | > 100 µM | – | – | – | – | – | – | – | – | – | – |
| O=C1NC(=O)C(C(CC(=O)c2ccc([N+](=O)[O-])cc2)c2ccccc2)C(=O)N1 (stereo not given) | > 100 µM | > 100 µM | > 100 µM | > 100 µM | 28 µM | > 100 µM | > 100 µM | > 100 µM | > 100 µM | > 100 µM | – | – | – | – | – | – | – | – | – | – |
| O=S(Nc1ccccc1)c1ccc(N2CCOCC2)cc1 (stereo not given) | > 100 µM | > 100 µM | > 100 µM | > 100 µM | > 100 µM | > 100 µM | > 100 µM | > 100 µM | > 100 µM | > 100 µM | – | – | – | – | – | – | – | – | – | – |
| CC(C)CNc1nc2ncnc(N)c2[nH]1 | > 100 µM | > 100 µM | > 100 µM | > 100 µM | > 100 µM | > 100 µM | > 100 µM | > 100 µM | > 100 µM | > 100 µM | – | – | – | – | – | – | – | – | – | – |
| ClCCCc1ccccc1C1=NCCc2ccccc21 | > 100 µM | > 100 µM | > 100 µM | > 100 µM | > 100 µM | > 100 µM | 40.5 µM | > 100 µM | > 100 µM | > 100 µM | – | – | – | – | – | – | – | – | – | – |
| CC(NC(=O)C(NC(=O)CNC(=O)OC(C)(C)C)C(C)C)C(=O)Oc1c(Cl)c(Cl)c(Cl)c(Cl)c1Cl (stereo not given) | 39.5 µM | 33.4 µM | 39.3 µM | 60 µM | 31.2 µM | > 100 µM | 33.9 µM | 42 µM | 51.2 µM | 46.6 µM | – | – | – | – | – | – | – | – | – | – |
| Cc1cc(F)ccc1S(=O)(=O)Nc1cc(-c2c(O)ccc3ccccc23)c(O)c2ccccc12 | 5.4 µM | 3.59 µM | 11.4 µM | 11.8 µM | 11.3 µM | 16.6 µM | 3.52 µM | 15.5 µM | 10.8 µM | 8.68 µM | 2.06 µM | 1.83 µM | 2.92 µM | 2.48 µM | 2.7 µM | 3.26 µM | 1.77 µM | 2.8 µM | 3.04 µM | 2.89 µM |
| Cc1ccc([S@](=O)c2occc2C=O)cc1 | 20.7 µM | 25.8 µM | 33.8 µM | 3.63 µM | 9.64 µM | 4.4 µM | 23.1 µM | 27.7 µM | 25.5 µM | 31.2 µM | – | – | – | – | – | – | – | – | – | – |
| O=C(NCCCCCCCCCCCCNC(=O)Nc1cccc2ccccc12)Nc1cccc2ccccc12 | 43.6 µM | 27 µM | 29.4 µM | 33.1 µM | 34.3 µM | 33.4 µM | 46.2 µM | 31.6 µM | 31.4 µM | 36.3 µM | – | – | – | – | – | – | – | – | – | – |
| CCOP(=O)(/C=C\n1cc(C)c(=O)[nH]c1=O)OCC | > 100 µM | > 100 µM | > 100 µM | > 100 µM | > 100 µM | > 100 µM | > 100 µM | > 100 µM | > 100 µM | > 100 µM | – | – | – | – | – | – | – | – | – | – |
| COC(OC)[C@@H]1OC[C@H](n2cnc3c(N)ncnc32)[C@H]1O | > 100 µM | > 100 µM | > 100 µM | > 100 µM | > 100 µM | > 100 µM | > 100 µM | > 100 µM | > 100 µM | > 100 µM | – | – | – | – | – | – | – | – | – | – |
| CCCCCCCC/C=C\CCCCCCC/C=C1\C[C@](/C=C/C(=O)OC)(CO)OC1=O | 4.34 µM | 3.82 µM | 20.2 µM | 3.78 µM | 6.26 µM | > 23 µM | 16.8 µM | 4.01 µM | 7.15 µM | 6.29 µM | – | – | – | – | – | – | – | – | – | – |
| N#CC1(C#N)NC(c2cccs2)C(C#N)(C#N)NC1c1cccs1 (stereo not given) | > 100 µM | 47.6 µM | > 100 µM | > 100 µM | > 100 µM | 64.3 µM | 74.2 µM | > 100 µM | 57.4 µM | > 100 µM | – | – | – | – | – | – | – | – | – | – |
| O=c1cc(N2CCCC2)[nH]c(=O)n1Cc1ccccc1 | > 100 µM | > 100 µM | > 100 µM | > 100 µM | > 100 µM | > 100 µM | > 100 µM | > 100 µM | > 100 µM | > 100 µM | – | – | – | – | – | – | – | – | – | – |
